The values below come from patent US20250263396A1, “CRYSTALLINE FORMS OF 3-(5-(2-HYDROXY-2- METHYLPROPOXY)-6-METHYPYRAZIN-2-YL)-1H-INDOLE-7-CARBONITRILE” (NIDO BIOSCIENCES, INC., priority 2024, published 2025).

A short description of data set [1]: Form change on heating, dehydration or desolvation (TGA, DSC, variable temperature XRPD). It is filed as physicochemical.
The nature of data set [2]: Competitive water activity experiments. To be noted: whole range of water activity (0≤a.w.≤1).
The nature of data set [3]: Competitive equilibration experiments.
Experimental: Relative stability of the anhydrate Forms A, C, H and J was investigated with competitive equilibration experiments.
Relative stability of the anhydrates Forms C, K and L was investigated with competitive equilibration experiments.
Relative stability of the anhydrates Form C and Form P was systematically investigated with competitive equilibration experiments.
About 5 mg of Form C and about 5 mg of Form P were added to 0.25 mL of saturated solutions of selected solvents. Obtained suspensions were stirred at 25° C., 50° C. and 70° C. for 4 days, respectively. Solid parts (wet cakes) were isolated by centrifugation filtration and investigated by XRPD.
About 10 mg of Form C and about 10 mg of Form P were added to 0.5 mL saturated solutions of selected solvents. Obtained suspensions were stirred at 80/C and 90 C, respectively. Solid parts (wet cakes) were be isolated by centrifugation filtration and investigated by XRPD.
About 3 mg of the Form P and 3 mg of the mixture of Form P and Form J were added to 0.2 mL of saturated solutions of selected solvents. Obtained suspensions were stirred at 25° C., 50° C. and 70° C. for 4 days, respectively. Solid parts (wet cakes) were isolated by centrifugation filtration and investigated by XRPD.
About 3 mg of Form P and 3 mg of the physical mixture of Form P and Form R were added to 0.2 mL of saturated solutions of 2-MeTHF. Obtained suspensions were stirred at 25° C., 50° C. and 70° C., respectively. Solid parts (wet cakes) were isolated by centrifugation filtration and investigated by XRPD.
About 1.5 mg of Form P, 1.5 mg of Form X and 1.5 mg Form Y were added to 0.15 mL saturated solution of 2-MeTHF. Obtained suspensions were stirred at 25° C., 50° C. and 70° C., respectively. Solid parts (wet cake) were isolated by centrifugation filtration and investigated by XRPD.
Data set [4] is described as follows: Form change on heating, dehydration or desolvation (TGA, DSC, variable temperature XRPD). The data set is classed as physicochemical. To be noted: variable temperature XRPD. As for the experimental part:
Relative stability of the anhydrates Form R and Form P was investigated by variable temperature XRPD and competitive equilibration experiments.
Relative stability of the anhydrates Form B, Form X, Form Y and Form C was investigated by variable temperature XRPD. Form B converted to Form X, Form Y and Form C after heating to 150° C., 176° C. and 180° C., respectively.

A short description of data set [5]: Equilibration with solvents. It is filed as physicochemical. As for the experimental part:
Obtained suspensions were filtered through a 0.45 μm nylon membrane filter by centrifugation at 14,000 rpm. Solid parts (wet cakes) were investigated by XRPD. For samples with different XRPD patterns, additional analysis including DSC, TGA, ^1H-NMR were performed.
(§1) Obtained suspensions were filtered through a 0.45 μm nylon membrane filter by centrifugation at 14,000 rpm.
as §1

Like-named read-outs stand apart in the source and are kept apart here.

On to `Cc1nc(-c2c[nH]c3c(C#N)cccc23)cnc1OCC(C)(C)O` [Form Q, 3-(5-(2-hydroxy-2-methylpropoxy)-6-methylpyrazin-2-yl)-1H-indole-7-carbonitrile], for which, in data set [1] (desolvation by heating to 150° C.), the Form after desolvation result was “converted to a physical mixture of Form C (majority) and Form Q”.
With `Cc1nc(-c2c[nH]c3c(C#N)cccc23)cnc1OCC(C)(C)O` [Form I, 3-(5-(2-hydroxy-2-methylpropoxy)-6-methylpyrazin-2-yl)-1H-indole-7-carbonitrile], the Form after heating result in data set [1] (heating to 140° C. by TGA and cooled to room temperature) is “converted to physical mixture of Form C, Form N and an unknown peak”.
With `Cc1nc(-c2c[nH]c3c(C#N)cccc23)cnc1OCC(C)(C)O` [Form N, 3-(5-(2-hydroxy-2-methylpropoxy)-6-methylpyrazin-2-yl)-1H-indole-7-carbonitrile], in data set [2], the “Relative stability in water activity experiments” value was “converts to Form C”.
For `Cc1nc(-c2c[nH]c3c(C#N)cccc23)cnc1OCC(C)(C)O` [Form R, 3-(5-(2-hydroxy-2-methylpropoxy)-6-methylpyrazin-2-yl)-1H-indole-7-carbonitrile], the “Form conversion (relative stability)” value in data set [3] (at both 25° C. and 70° C.) is given as “converts to Form P”.
As to `Cc1nc(-c2c[nH]c3c(C#N)cccc23)cnc1OCC(C)(C)O` [Form E, 3-(5-(2-hydroxy-2-methylpropoxy)-6-methylpyrazin-2-yl)-1H-indole-7-carbonitrile], the Form after heating entry in data set [1] (heating to 100° C. by TGA and cooled to room temperature) was “converts to physical mixture of Form F and Form G”.
Consider `Cc1nc(-c2c[nH]c3c(C#N)cccc23)cnc1OCC(C)(C)O` [Form D, 3-(5-(2-hydroxy-2-methylpropoxy)-6-methylpyrazin-2-yl)-1H-indole-7-carbonitrile], for which the Form after desolvation result in data set [1] is “converts to Form C”.
As for `Cc1nc(-c2c[nH]c3c(C#N)cccc23)cnc1OCC(C)(C)O` [Form B, 3-(5-(2-hydroxy-2-methylpropoxy)-6-methylpyrazin-2-yl)-1H-indole-7-carbonitrile], the Form after heating result in data set [4] (heating to 150° C.) is “Form X”; in data set [4] (heating to 176° C.), “Form Y”; in data set [4] (heating to 180° C.) it was “Form C”. Moreover, in data set [1], the Form after dehydration result was “converts to Form K”. In data set [2], the “Relative stability in water activity experiments” value is recorded as “converts to anhydrate Form C”.
Take `Cc1nc(-c2c[nH]c3c(C#N)cccc23)cnc1OCC(C)(C)O` [Form P + Form X + Form Y, 3-(5-(2-hydroxy-2-methylpropoxy)-6-methylpyrazin-2-yl)-1H-indole-7-carbonitrile]: the “XRPD after competitive equilibration” value in data set [3] (2-MeTHF, 25° C. for about 3 days) is recorded as “Form P”; in data set [3] (2-MeTHF, 50° C. for about 3 days) it was “Form P”; in data set [3] (2-MeTHF, 70° C. for about 3 days), “Form P”.
In the case of `Cc1nc(-c2c[nH]c3c(C#N)cccc23)cnc1OCC(C)(C)O` [Form C and Form P, 3-(5-(2-hydroxy-2-methylpropoxy)-6-methylpyrazin-2-yl)-1H-indole-7-carbonitrile], the “XRPD after competitive equilibration” value in data set [3] (1,4-Dioxane, 25° C. for 4 days) is “Form D”; in data set [3] (1,4-Dioxane, 50° C. for 4 days), “Form D”; in data set [3] (1,4-Dioxane, 70° C. for 4 days), “Form D”; in data set [3] (2-MeTHF, 25° C. for 4 days), “Form P”; in data set [3] (2-MeTHF, 50° C. for 4 days), “Form P”; in data set [3] (2-MeTHF, 70° C. for 4 days), “Form P”. The “XRPD after competitive equilibration” value is recorded as “Form P” in data set [3] (Acetone, 25° C. for 4 days); “Form P” in data set [3] (Acetone, 50° C. for 4 days); “Form P” in data set [3] (Acetone, 70° C. for 4 days); “Form P” in data set [3] (Acetone/water (v:v = 36:64) a.w = 0.9, 25° C. for 4 days); “Form P” in data set [3] (Acetone/water (v:v = 36:64) a.w = 0.9, 50° C. for 4 days); “Form P” in data set [3] (Acetone/water (v:v = 36:64) a.w = 0.9, 70° C. for 4 days). In addition, the “XRPD after competitive equilibration” value in data set [3] (Acetone/water (v:v = 76.5:23.5) a.w = 0.7, 25° C. for 4 days) is “Form P”; in data set [3] (Acetone/water (v:v = 76.5:23.5) a.w = 0.7, 50° C. for 4 days) it was “Form P”; in data set [3] (Acetone/water (v:v = 76.5:23.5) a.w = 0.7, 70° C. for 4 days), “Form P”; in data set [3] (Acetone/water (v:v = 95.2:4.8) a.w = 0.4, 25° C. for 4 days) it was “Form P”; in data set [3] (Acetone/water (v:v = 95.2:4.8) a.w = 0.4, 50° C. for 4 days), “Form P”; in data set [3] (Acetone/water (v:v = 95.2:4.8) a.w = 0.4, 70° C. for 4 days), “Form P”. The “XRPD after competitive equilibration” value in data set [3] (Acetonitrile, 25° C. for 4 days) is given as “Form P”; in data set [3] (Acetonitrile, 50° C. for 4 days), “Form P”; in data set [3] (Acetonitrile, 70° C. for 4 days), “Form P”; in data set [3] (DCM, 25° C. for 4 days), “Form P”; in data set [3] (DMSO/water (v:v = 1:5 a.w. = 0.94), 80° C. for about 6 d), “Form P”; in data set [3] (DMSO/water (v:v = 1:5 a.w. = 0.94), 90° C. for about 8 d) it was “Form C (majority) +”. The “XRPD after competitive equilibration” value in data set [3] (DMSO/water (v:v = 1:5 a.w. = 0.94), 90° C. for about 18 d) is listed as “Form C”; in data set [3] (Ethanol, 25° C. for 4 days), “Form P”; in data set [3] (Ethanol, 50° C. for 4 days) it was “Form P”; in data set [3] (Ethanol, 70° C. for 4 days), “Form P”; in data set [3] (Ethyl acetate, 25° C. for 4 days), “Form P”; in data set [3] (Ethyl acetate, 50° C. for 4 days), “Form P”. Besides, the “XRPD after competitive equilibration” value is “Form P” in data set [3] (Ethyl acetate, 70° C. for 4 days); “Form P” in data set [3] (Heptane, 25° C. for 4 days); “Form P” in data set [3] (Heptane, 50° C. for 4 days); “Form P” in data set [3] (Heptane, 70° C. for 4 days); “Form C + Form P” in data set [3] (Heptane, 90° C. for about 8 d); “Form C + Form P” in data set [3] (Heptane, 90° C. for about 18 d). In addition, the “XRPD after competitive equilibration” value is “Form P” in data set [3] (Isopropyl acetate, 25° C. for 4 days); “Form P” in data set [3] (Isopropyl acetate, 50° C. for 4 days); “Form P” in data set [3] (Isopropyl acetate, 70° C. for 4 days); “Form P” in data set [3] (MEK, 25° C. for 4 days); “Form P” in data set [3] (MEK, 50° C. for 4 days); “Form P” in data set [3] (MEK, 70° C. for 4 days). Moreover, the “XRPD after competitive equilibration” value is on record as “Form Q, NMP” in data set [3] (NMP, 25° C. for 4 days); “Form P” in data set [3] (THF, 25° C. for 4 days); “Form P” in data set [3] (THF, 50° C. for 4 days); “Form C” in data set [3] (Toluene, 90° C. for about 8 d); “Form P” in data set [3] (Water, 25° C. for 4 days); “Form P” in data set [3] (Water, 50° C. for 4 days). In addition, the “XRPD after competitive equilibration” value is “Form P” in data set [3] (Water, 70° C. for 4 days); “Form C + Form P” in data set [3] (Water, 90° C. for about 8 d); “Form P” in data set [3] (Water, 90° C. for about 18 d).
`Cc1nc(-c2c[nH]c3c(C#N)cccc23)cnc1OCC(C)(C)O` [Form G, 3-(5-(2-hydroxy-2-methylpropoxy)-6-methylpyrazin-2-yl)-1H-indole-7-carbonitrile]: the Form after equilibration entry in data set [5] (DMSO/water system at 25° C. for 6 days) is reported as “converts to anhydrate Form H”.
`Cc1nc(-c2c[nH]c3c(C#N)cccc23)cnc1OCC(C)(C)O` [Form S, 3-(5-(2-hydroxy-2-methylpropoxy)-6-methylpyrazin-2-yl)-1H-indole-7-carbonitrile]: in data set [2], the “Relative stability in water activity experiments” value is given as “converted to anhydrate Form P”.
Turning to `Cc1nc(-c2c[nH]c3c(C#N)cccc23)cnc1OCC(C)(C)O` [Form M, 3-(5-(2-hydroxy-2-methylpropoxy)-6-methylpyrazin-2-yl)-1H-indole-7-carbonitrile], the Form after equilibration result in data set [5] (MeOH at 25° C. for another 1 day) is “converts to Form B”.
In the case of `Cc1nc(-c2c[nH]c3c(C#N)cccc23)cnc1OCC(C)(C)O` [Form U, 3-(5-(2-hydroxy-2-methylpropoxy)-6-methylpyrazin-2-yl)-1H-indole-7-carbonitrile], the Form after desolvation entry in data set [1] was “converted to Form C”.
For `Cc1nc(-c2c[nH]c3c(C#N)cccc23)cnc1OCC(C)(C)O` [Form A, 3-(5-(2-hydroxy-2-methylpropoxy)-6-methylpyrazin-2-yl)-1H-indole-7-carbonitrile], the “Form conversion (relative stability)” value in data set [3] (at both 25° C. and 50° C.) is reported as “converts to Form C”.
With `Cc1nc(-c2c[nH]c3c(C#N)cccc23)cnc1OCC(C)(C)O` [Form X, 3-(5-(2-hydroxy-2-methylpropoxy)-6-methylpyrazin-2-yl)-1H-indole-7-carbonitrile], the “Form conversion (relative stability)” value in data set [3] (at 25° C., 50° C. and 70° C.) was “converts to Form P”.
